Test results reported in patent publication US20230027361A1, “METTL3 MODULATORS” (priority 2019, published 2023).
Where two headings read alike, the source gives them in different places.

How the values were obtained:
[1] = target: PRMT5-MEP50 (Homo sapiens, UniProt O14744); test: PRMT5 Assay (PRMT5 biochemical assay)
Experimental: Assays were performed in a 25 μl-volume in 384-well V-bottom polypropylene microplates (Greiner Bio-One, cat. No. 781280) at ambient temperature. Optimized 1× assay buffer was 20 mM Tris-HCl pH 8.0, 1 mM DTT, […]. For compound screening PRMT5-MEP50 (final concentration, f.c.=2.5 nM) was added using a Multidrop Combi (ThermoFisher Scientific, Waltham, Mass.) and preincubated for 5 min. Reactions were started by adding 3′ biotinylated histone H4 peptide acetylated on serine 1 (Ac-[…]-Biotin) (f.c.=100 nM) and 3H-SAM (f.c.=250 nM) substrates. Reactions proceeded for 60 minutes and were quenched with excess non-radioactive SAM (f.c.=15 μM). The reactions were then transferred to streptavidin-coated flashplates and incubated for 2 hours at 25° C. Following two washing cycles with 0.1% Tween-20, the plates were sealed and read on a TopCount (PerkinElmer, Waltham, Mass.) plate-based scintillation counter. For determination of kinetic parameters, reaction times were optimized so that measurements were taken during the initial velocity phase of the reaction.

[2] = target: METTL1/WDR4 (Homo sapiens, UniProt Q9UBP6); test: METTL1 Assay (METTL1 biochemical assay); details: read-out: METTL1 IC50; METTL1 biochemical assay
Experimental: Assays were performed in a 25 μl-volume in 384-well V-bottom polypropylene microplates (Greiner Bio-One, cat. No. 781280) at ambient temperature. Optimized 1× assay buffer was 20 mM HEPES pH 7.5, 50 mM KCl, 250 μM MgCl2, 1 mM DTT, 0.01% Tween, 0.01% BSG, 0.004 U/μl RNAseOUT (cat. No. 10777019, ThermoFisher Scientific, Waltham, Mass.). For compound screening METTL1/WDR4 (final concentration, f.c.=6.25 nM) was added using a Multidrop Combi (ThermoFisher Scientific, Waltham, Mass.) and preincubated for 5 min. Reactions were started by adding 3′ biotinylated RNA ([…]-biotin) (f.c.=25 nM) and 3H-SAM (f.c.=60 nM) substrates. Reactions proceeded for 20 minutes and were quenched with excess non-radioactive SAM (f.c.=15 μM). The reactions were then transferred to streptavidin-coated flashplates and incubated for 2 hours at 25° C. Following two washing cycles with 0.1% Tween-20, the plates were sealed and read on a TopCount (PerkinElmer, Waltham, Mass.) plate-based scintillation counter. For determination of kinetic parameters, reaction times were optimized so that measurements were taken during the initial velocity phase of the reaction.

[3] = target: METTL3/METTL14 (Homo sapiens, UniProt Q86U44); test: METTL3-14 Standard Enzyme Assay (METTL3 biochemical assay)
Experimental: Assays were performed in a 25 μl-volume in 384-well V-bottom polypropylene microplates (Greiner Bio-One, cat. No. 781280) at ambient temperature. Optimized 1× assay buffer was 20 mM HEPES pH 7.5, 50 mM KCl, 250 μM MgCl2, 1 mM DTT, 0.01% Tween, 0.01% BSG, 0.004 U/μl RNAseOUT (cat. No. 10777019, ThermoFisher Scientific, Waltham, Mass.). For compound screening METTL3/METTL14 (final concentration, f.c.=2.5 nM) was added using a Multidrop Combi (ThermoFisher Scientific, Waltham, Mass.) and preincubated for 5 min. Reactions were started by adding 3′ biotinylated RNA ([…]-biotin) (f.c.=100 nM) and 3H-SAM (f.c.=100 nM) substrates. Reactions proceeded for 30 minutes and were quenched with excess non-radioactive SAM (f.c.=15 μM). The reactions were then transferred to streptavidin-coated flashplates and incubated for 2 hours at 25° C. Following two washing cycles with 0.1% Tween-20, the plates were sealed and read on a TopCount (PerkinElmer, Waltham, Mass.) plate-based scintillation counter. For determination of kinetic parameters, reaction times were optimized so that measurements were taken during the initial velocity phase of the reaction.

[4] = PRMT5 biochemical assay, read-out: PRMT5 IC50
[5] = METTL3 biochemical assay, read-out: METTL3 IC50

Chain of PRMT5-MEP50 (O14744 whole entry): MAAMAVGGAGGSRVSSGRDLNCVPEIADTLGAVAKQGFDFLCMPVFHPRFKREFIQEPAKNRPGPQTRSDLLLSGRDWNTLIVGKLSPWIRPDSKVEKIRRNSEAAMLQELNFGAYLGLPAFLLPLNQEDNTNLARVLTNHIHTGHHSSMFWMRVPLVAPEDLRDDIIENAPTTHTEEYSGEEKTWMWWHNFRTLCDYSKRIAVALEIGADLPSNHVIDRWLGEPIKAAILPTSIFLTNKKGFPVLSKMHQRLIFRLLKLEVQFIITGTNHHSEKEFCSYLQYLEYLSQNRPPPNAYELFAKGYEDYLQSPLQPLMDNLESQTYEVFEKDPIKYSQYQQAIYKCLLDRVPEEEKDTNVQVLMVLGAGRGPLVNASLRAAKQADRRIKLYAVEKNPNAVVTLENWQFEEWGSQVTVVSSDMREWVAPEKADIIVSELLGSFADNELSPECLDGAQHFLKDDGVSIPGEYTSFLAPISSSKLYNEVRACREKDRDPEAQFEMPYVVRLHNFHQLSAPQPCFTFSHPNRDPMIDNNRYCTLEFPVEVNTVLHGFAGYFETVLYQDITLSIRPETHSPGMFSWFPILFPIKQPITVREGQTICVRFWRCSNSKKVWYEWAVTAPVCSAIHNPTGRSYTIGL
Chain of PRMT5-MEP50 (Q9BQA1 whole entry partner): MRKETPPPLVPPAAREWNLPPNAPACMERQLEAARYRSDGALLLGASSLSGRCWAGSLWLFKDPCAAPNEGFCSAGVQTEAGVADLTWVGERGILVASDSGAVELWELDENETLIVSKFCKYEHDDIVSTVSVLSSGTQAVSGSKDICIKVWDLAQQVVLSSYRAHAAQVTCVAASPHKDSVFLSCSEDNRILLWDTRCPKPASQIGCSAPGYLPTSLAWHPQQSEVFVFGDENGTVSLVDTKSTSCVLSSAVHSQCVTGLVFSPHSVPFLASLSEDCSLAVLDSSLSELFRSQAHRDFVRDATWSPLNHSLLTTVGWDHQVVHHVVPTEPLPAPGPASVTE
Chain of METTL1/WDR4 (Q9UBP6 whole entry, species assumed): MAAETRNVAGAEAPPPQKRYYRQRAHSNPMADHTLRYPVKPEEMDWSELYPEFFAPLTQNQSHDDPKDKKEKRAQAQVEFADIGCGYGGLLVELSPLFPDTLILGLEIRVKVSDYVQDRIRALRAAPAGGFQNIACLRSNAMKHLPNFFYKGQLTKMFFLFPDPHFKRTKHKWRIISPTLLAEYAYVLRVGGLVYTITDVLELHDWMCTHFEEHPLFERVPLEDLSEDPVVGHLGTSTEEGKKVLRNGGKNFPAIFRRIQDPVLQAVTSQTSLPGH
Chain of METTL1/WDR4 (P57081 whole entry partner, species assumed): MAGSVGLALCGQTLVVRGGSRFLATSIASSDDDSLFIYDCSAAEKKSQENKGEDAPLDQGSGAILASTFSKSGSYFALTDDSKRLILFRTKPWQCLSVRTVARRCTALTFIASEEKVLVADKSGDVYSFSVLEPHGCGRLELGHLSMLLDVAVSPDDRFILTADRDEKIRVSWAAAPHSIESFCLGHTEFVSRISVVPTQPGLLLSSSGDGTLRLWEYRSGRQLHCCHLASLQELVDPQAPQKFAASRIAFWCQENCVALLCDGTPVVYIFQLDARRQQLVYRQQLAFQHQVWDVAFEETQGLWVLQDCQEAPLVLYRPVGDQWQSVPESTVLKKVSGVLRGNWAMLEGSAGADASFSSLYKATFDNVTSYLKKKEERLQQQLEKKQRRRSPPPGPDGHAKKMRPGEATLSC
Chain of METTL3/METTL14 (Q86U44 whole entry, species assumed): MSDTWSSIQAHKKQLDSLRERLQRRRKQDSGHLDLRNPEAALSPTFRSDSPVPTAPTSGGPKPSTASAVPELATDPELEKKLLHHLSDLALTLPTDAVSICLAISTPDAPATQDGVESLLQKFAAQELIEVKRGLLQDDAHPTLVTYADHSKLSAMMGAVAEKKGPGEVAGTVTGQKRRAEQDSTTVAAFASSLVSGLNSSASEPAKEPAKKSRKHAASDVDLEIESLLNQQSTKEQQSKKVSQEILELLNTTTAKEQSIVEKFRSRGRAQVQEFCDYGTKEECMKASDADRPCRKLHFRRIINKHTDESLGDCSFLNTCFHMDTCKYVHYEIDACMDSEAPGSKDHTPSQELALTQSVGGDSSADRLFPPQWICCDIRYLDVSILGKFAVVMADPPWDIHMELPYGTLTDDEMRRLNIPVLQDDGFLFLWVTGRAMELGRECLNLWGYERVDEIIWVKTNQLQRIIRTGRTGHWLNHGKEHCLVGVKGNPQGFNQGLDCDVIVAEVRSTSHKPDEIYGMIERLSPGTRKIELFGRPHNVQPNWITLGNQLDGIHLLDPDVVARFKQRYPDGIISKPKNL
Chain of METTL3/METTL14 (Q9HCE5 whole entry partner, species assumed): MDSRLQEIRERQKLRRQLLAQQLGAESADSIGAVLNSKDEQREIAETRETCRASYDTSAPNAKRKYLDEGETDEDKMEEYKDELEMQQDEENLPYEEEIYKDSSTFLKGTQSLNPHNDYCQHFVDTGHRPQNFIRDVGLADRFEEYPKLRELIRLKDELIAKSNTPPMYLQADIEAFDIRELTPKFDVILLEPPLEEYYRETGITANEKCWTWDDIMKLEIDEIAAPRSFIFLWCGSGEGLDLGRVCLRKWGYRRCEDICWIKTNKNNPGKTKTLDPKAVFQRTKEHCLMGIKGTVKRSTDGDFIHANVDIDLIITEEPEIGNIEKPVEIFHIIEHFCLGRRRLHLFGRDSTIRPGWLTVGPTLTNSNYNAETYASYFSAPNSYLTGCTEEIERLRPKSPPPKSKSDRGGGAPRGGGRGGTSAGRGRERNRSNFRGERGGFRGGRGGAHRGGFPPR

| Compound | IC50 [1, 4] | IC50 [2] | IC50 [3, 5] | IC50 [3] | IC50 [1] |
| --- | --- | --- | --- | --- | --- |
| Cc1cn([C@@H]2C[C@H](CCc3ccc4ccc(N)nc4c3)[C@@H](O)[C@H]2O)c2ncnc(N)c12 [I-66] | < 10 nM | > 1000 nM |  |  |  |
| CCCNc1ccc2ccc(CC[C@H]3C[C@@H](n4ccc5c(N)ncnc54)[C@H](O)[C@@H]3O)cc2n1 [I-120] | < 10 nM | > 1000 nM |  |  |  |
| Nc1ncnc2c1ccn2[C@@H]1C[C@H](CCc2ccc3ccncc3c2)[C@@H](O)[C@H]1O [I-131] | 10 to 100 nM | > 1000 nM |  |  |  |
| CCc1cc(N(C)C2CC2)c2ccc(OC[C@H]3O[C@@H](n4ccc5c(N)ncnc54)C[C@@H]3O)cc2n1 [I-161] |  |  | 10 to 100 nM |  |  |
| CN(CCS(C)(=O)=O)c1ccc2ccc(OC[C@H]3O[C@@H](n4cc(-c5ccn(C)n5)c5c(N)ncnc54)[C@@H](F)[C@@H]3O)cc2n1 [I-166] |  |  |  | 100 to 1000 nM | > 1000 nM |
| CCc1nc2cc(OC[C@H]3O[C@@H](n4cc(-c5ccn(C)n5)c5c(N)ncnc54)[C@@H](F)[C@@H]3O)ccc2o1 [I-168] |  |  |  | > 1000 nM | > 1000 nM |
| CCc1nc2cc(OC[C@H]3O[C@@H](n4cc(-c5ccn(C)n5)c5c(N)ncnc54)[C@@H](F)[C@@H]3O)ccc2[nH]1 [I-172] |  |  |  | 100 to 1000 nM | > 1000 nM |
| CNc1nc2cc(OC[C@H]3O[C@@H](n4cc(-c5ccn(C)n5)c5c(N)ncnc54)[C@@H](F)[C@@H]3O)ccc2o1 [I-173] |  |  |  | 100 to 1000 nM | > 1000 nM |
| Cn1ccc(-c2cn([C@@H]3O[C@H](COc4ccc(C(=O)N5CCNCC5)c(N)c4)[C@@H](O)[C@@H]3F)c3ncnc(N)c23)n1 [I-174] |  |  |  | 100 to 1000 nM | > 1000 nM |
| Nc1cc(OC[C@H]2O[C@@H](n3ccc4c(N)ncnc43)[C@@H](F)[C@@H]2O)ccc1C(=O)N1CCNCC1 [I-175] | > 1000 nM |  | > 1000 nM |  |  |
| CNc1nc2cc(OC[C@H]3O[C@@H](n4cc(-c5ccn(C)n5)c5c(N)ncnc54)[C@@H](F)[C@@H]3O)ccc2s1 [I-176] |  |  |  | 100 to 1000 nM | > 1000 nM |
| Cn1ccc(-c2cn([C@@H]3O[C@H](COc4ccc5sc(N6CCC6)nc5c4)[C@@H](O)[C@@H]3F)c3ncnc(N)c23)n1 [I-177] |  |  |  | 10 to 100 nM | > 1000 nM |
| Cn1ccc(-c2cn([C@H]3C[C@H](O)[C@@H](COc4ccc5ccc(N6CC(N)C6)nc5c4)O3)c3ncnc(N)c23)n1 [I-182] |  |  |  | < 10 nM | > 1000 nM |
| Nc1ncnc2c1ccn2[C@H]1C[C@H](O)[C@@H](COc2ccc3ccc(N4CC(N)C4)nc3c2)O1 [I-184] | 10 to 100 nM |  | 100 to 1000 nM |  |  |
| Nc1ncnc2c1ccn2[C@@H]1O[C@H](COc2ccc3ccc(NC4CCC4)nc3c2)[C@@H](O)[C@@H]1F [I-185] | > 1000 nM |  | < 10 nM |  |  |
| Cc1ccn(-c2cn([C@@H]3O[C@H](COc4ccc5ccc(N6CC(N)C6)nc5c4)[C@@H](O)[C@@H]3F)c3ncnc(N)c23)n1 [I-186] |  |  |  | 10 to 100 nM | 100 to 1000 nM |
| Cc1ccn(-c2cn([C@@H]3O[C@H](COc4ccc5ccc(N6CC(O)C6)nc5c4)[C@@H](O)[C@@H]3F)c3ncnc(N)c23)n1 [I-187] |  |  |  | < 10 nM | > 1000 nM |
| Nc1ncnc2c1ccn2[C@@H]1O[C@H](COc2ccc3ccc(N4CC(N)C4)nc3c2)[C@@H](O)[C@@H]1F [I-188] | > 1000 nM |  | 10 to 100 nM |  |  |
| Cn1ccc(-c2cn([C@@H]3O[C@H](COc4ccc5ncc(N6CCC6)nc5c4)[C@@H](O)[C@@H]3F)c3ncnc(N)c23)n1 [I-189] |  |  |  | 10 to 100 nM | > 1000 nM |
| Nc1ncnc2c1ccn2[C@@H]1O[C@H](CCC2CCNCC2)[C@@H](O)[C@@H]1F [I-192] | > 1000 nM |  | 100 to 1000 nM |  |  |
| CNc1ccc2sc(CC[C@H]3O[C@@H](n4ccc5c(N)ncnc54)[C@@H](F)[C@@H]3O)cc2n1 [I-193] | 10 to 100 nM |  | 10 to 100 nM |  |  |

| Compound | IC50 [1, 4] | IC50 [2] | IC50 [3, 5] | IC50 [3] | IC50 [1] |
| --- | --- | --- | --- | --- | --- |
| Cn1ccc(-c2cn([C@H]3C[C@H](O)[C@@H](CCc4ccc5ccc(N6CCC6)nc5c4)O3)c3ncnc(N)c23)n1 [I-194] |  |  |  | < 10 nM | > 1000 nM |
| CNc1nc2cc(OC[C@H]3O[C@@H](n4cc(-n5cccn5)c5c(N)ncnc54)[C@@H](F)[C@@H]3O)ccc2s1 [I-195] |  |  |  | 100 to 1000 nM | > 1000 nM |
| Cn1ccc(-c2cn([C@@H]3O[C@H](COc4ccc5ccc(NC6CNC6)nc5c4)[C@@H](O)[C@@H]3F)c3ncnc(N)c23)n1 [I-196] |  |  |  | 100 to 1000 nM | > 1000 nM |
| Cn1ccc(-c2cn([C@@H]3O[C@H](COc4ccc5ccc(N[C@H]6C[C@H](N)C6)nc5c4)[C@@H](O)[C@@H]3F)c3ncnc(N)c23)n1 [I-197] |  |  |  | 10 to 100 nM | 100 to 1000 nM |
| Nc1ncnc2c1ccn2[C@H]1C[C@H](O)[C@@H](CCc2ccc3ccc(N4CCC4)nc3c2)O1 [I-198] | > 1000 nM |  | 10 to 100 nM |  |  |
| Cn1ccc(-c2cn([C@@H]3O[C@H](COc4ccc5ccc(NC67CC(C6)C7)nc5c4)[C@@H](O)[C@@H]3F)c3ncnc(N)c23)n1 [I-200] |  |  |  | < 10 nM | 100 to 1000 nM |
| Cn1ccc(-c2cn([C@@H]3O[C@H](COc4ccc5ccc(N[C@H]6C[C@@H](N)C6)nc5c4)[C@@H](O)[C@@H]3F)c3ncnc(N)c23)n1 [I-201] |  |  |  | 10 to 100 nM | 100 to 1000 nM |
| CN(c1ccc2ccc(OC[C@H]3O[C@@H](n4cc(-c5ccn(C)n5)c5c(N)ncnc54)[C@@H](F)[C@@H]3O)cc2n1)C1CCC1 [I-202] |  |  |  | < 10 nM | > 1000 nM |
| Cn1ccc(-c2cn([C@@H]3O[C@H](COc4ccc5ccc(C(=O)N6CCC6)nc5c4)[C@@H](O)[C@@H]3F)c3ncnc(N)c23)n1 [I-203] |  |  |  | > 1000 nM | > 1000 nM |
| Nc1ncnc2c1ccn2[C@@H]1O[C@H](COc2ccc3ccc(N[C@H]4C[C@@H](N)C4)nc3c2)[C@@H](O)[C@@H]1F [I-204] | 100 to 1000 nM |  | 100 to 1000 nM |  |  |
| CNc1nc2cc(OC[C@H]3O[C@@H](n4cc(-n5ccc(C)n5)c5c(N)ncnc54)C[C@@H]3O)ccc2cc1F [I-207] |  |  |  | > 1000 nM | > 1000 nM |
| CNc1nc2cc(OC[C@H]3O[C@@H](n4cc(-c5ccn(C)n5)c5c(N)ncnc54)[C@@H](F)[C@@H]3O)ccc2[nH]1 [I-208] |  |  |  | < 10 nM | 100 to 1000 nM |
| CCNc1ccc2ccc(CC[C@H]3C[C@@H](n4cc(-n5cccn5)c5c(N)ncnc54)C[C@@H]3O)cc2n1 [I-209] |  |  |  | < 10 nM |  |
| Nc1ncnc2c1c(-n1cccn1)cn2[C@@H]1C[C@H](CCc2cc3nc(N4CCC4)ccc3cc2F)[C@@H](O)C1 [I-210] |  |  |  | < 10 nM | > 1000 nM |
| CC1(C)COC(c2cn([C@@H]3O[C@H](COc4ccc5ccc(N6CCC6)nc5c4)[C@@H](O)[C@@H]3F)c3ncnc(N)c23)=N1 [I-213] | > 1000 nM |  | < 10 nM |  |  |
| CN(C)Cc1cn([C@@H]2O[C@H](COc3ccc4ccc(N5CCC5)nc4c3)[C@@H](O)[C@@H]2F)c2ncnc(N)c12 [I-214] | > 1000 nM |  | < 10 nM |  |  |
| Nc1ncnc2c1c(-c1cnccn1)cn2[C@@H]1O[C@H](COc2ccc3ccc(N4CCC4)nc3c2)[C@@H](O)[C@@H]1F [I-215] |  |  |  | < 10 nM | > 1000 nM |
| CN(C)C(=O)c1cn([C@@H]2O[C@H](COc3ccc4ccc(N5CCC5)nc4c3)[C@@H](O)[C@@H]2F)c2ncnc(N)c12 [I-216] |  |  |  | 10 to 100 nM | 100 to 1000 nM |
| Nc1ncnc2c1c([C@@H]1CCCO1)cn2[C@@H]1O[C@H](COc2ccc3ccc(N4CCC4)nc3c2)[C@@H](O)[C@@H]1F [I-224] | 100 to 1000 nM |  | < 10 nM |  |  |
| Nc1ncnc2c1c(-n1cccn1)cn2C1CC(CCc2ccc3ccc(NC4CCC4)nc3c2)C(O)C1F (centres unmarked) [I-235] |  |  |  | 100 to 1000 nM | 10 to 100 nM |
